Reference: patent publication US8492352B2, “Polysaccharides with antithrombotic activity, including a covalent bond and an amino chain” (Sanofi, priority 2008, dated 2013)
Where a name gives a salt, the structure may show the parent alone.

Target: coagulation factor Xa, in the presence of antithrombin (Homo sapiens, UniProt P01008)
Experiment: in vitro model of inhibition of coagulation factor Xa in the presence of antithrombin (anti-factor Xa activity)
Type: biochemical
Details: method per Herbert et al., Blood 1998, read-out: IC50 (dose for 50% inhibition), inhibition of coagulation factor Xa (converted)
Excerpt: The pharmacological activity of these products was in particular studied in an in vitro model of inhibition of coagulation factor Xa, in the presence of antithrombin (anti-factor Xa activity dependent on the presence of antithrombin), as described by J.-M. Herbert et al., Blood, 1998, 91, 4197-4205. In this model, the antithrombotic properties of the compounds according to the invention are confirmed.

coagulation factor Xa, in the presence of antithrombin, sequence (P01008 33-464): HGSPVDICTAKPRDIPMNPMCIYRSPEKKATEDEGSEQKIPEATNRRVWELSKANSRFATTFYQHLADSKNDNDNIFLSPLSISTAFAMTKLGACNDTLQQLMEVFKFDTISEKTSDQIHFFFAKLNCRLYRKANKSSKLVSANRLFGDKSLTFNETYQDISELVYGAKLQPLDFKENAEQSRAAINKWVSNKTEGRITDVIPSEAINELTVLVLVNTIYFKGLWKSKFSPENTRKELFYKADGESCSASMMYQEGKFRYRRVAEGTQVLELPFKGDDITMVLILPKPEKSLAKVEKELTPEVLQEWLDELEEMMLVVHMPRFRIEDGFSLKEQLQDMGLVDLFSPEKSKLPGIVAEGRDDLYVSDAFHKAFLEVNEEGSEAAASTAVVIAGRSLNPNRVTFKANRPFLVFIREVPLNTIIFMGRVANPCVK

COC1OC(COS(=O)(=O)O)C(OC2OC(C(=O)O)C(OC3OC(COS(=O)(=O)O)C(OC4OC(C(=O)O)C(OC5OC(COS(=O)(=O)O)C(OC)C(OC)C5NC(=O)CCCCCN)C(OC)C4OC)C(OS(=O)(=O)O)C3OS(=O)(=O)O)C(OC)C2OC)C(OS(=O)(=O)O)C1OS(=O)(=O)O [compound 1, Methyl(2-[N-(6-aminohexanoyl)]-2-deoxy-3,4-di-O-methyl-6-O-sulfonato-α-D-glucopyranosyl)-(1→4)-(2,3-di-O-methyl-β-D-glucopyranosyluronic acid)-(1→4)-(2,3,6-tri-O-sulfonato-α-D-glucopyranosyl)-(1→4)-(2,3-di-O-methyl-α-L-idopyranosyluronic acid)-(1→4)-2,3,6-tri-O-sulfonato-α-D-glucopyranoside, sodium salt]
IC50: 10.4 nM
